Experimental data as given in ChEMBL document CHEMBL2375216, “Molecular design, synthesis and biological evaluation of cyclic imides bearing benzenesulfonamide fragment as potential COX-2 inhibitors. Part 2” (Bioorg Med Chem Lett, 2013).
pIC50: −log10 of the molar value.

Key:
[1] = target: T1, Prostaglandin G/H synthase 1 (Ovis aries, UniProt P05979); assay: Inhibition of ovine COX1-mediated prostaglandin alpha production by enzyme immuno assay
T1 sequence (P05979 whole entry): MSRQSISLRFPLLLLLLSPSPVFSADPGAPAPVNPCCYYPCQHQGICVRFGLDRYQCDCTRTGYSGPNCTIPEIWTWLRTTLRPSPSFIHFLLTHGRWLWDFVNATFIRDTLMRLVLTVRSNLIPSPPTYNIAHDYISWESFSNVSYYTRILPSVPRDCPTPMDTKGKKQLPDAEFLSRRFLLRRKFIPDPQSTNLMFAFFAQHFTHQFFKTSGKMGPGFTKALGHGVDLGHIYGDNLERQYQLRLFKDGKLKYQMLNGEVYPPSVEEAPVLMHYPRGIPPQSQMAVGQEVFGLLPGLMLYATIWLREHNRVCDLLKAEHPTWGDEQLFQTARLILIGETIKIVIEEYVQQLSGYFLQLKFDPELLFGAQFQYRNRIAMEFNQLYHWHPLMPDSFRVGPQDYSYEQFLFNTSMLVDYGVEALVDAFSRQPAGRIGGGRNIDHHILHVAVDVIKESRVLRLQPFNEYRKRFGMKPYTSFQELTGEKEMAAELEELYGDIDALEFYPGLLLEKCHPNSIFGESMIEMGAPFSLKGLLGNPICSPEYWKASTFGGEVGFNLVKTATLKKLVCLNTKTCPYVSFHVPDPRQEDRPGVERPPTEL

Rattus norvegicus = assay: Antiinflammatory activity in ip dosed Sprague-Dawley rat assessed as inhibition of carrageenan-induced paw edema measured after 2 hrs plethysmometric analysis; format: functional

Row | Structure (SMILES) | pIC50 [1] | ED50 (Rattus norvegicus) [mg/kg]
1 | NS(=O)(=O)c1ccc(N2C(=O)c3c(Cl)c(Cl)c(Cl)c(Cl)c3C2=O)cc1 | < 4.00 | –
2 | O=C(O)c1ccc(N2C(=O)c3c(Cl)c(Cl)c(Cl)c(Cl)c3C2=O)cc1 | < 4.00 | –
3 | CC(C)(C)c1ccc2c(c1)C(=O)N(c1ccc(C(=O)O)cc1)C2=O | < 4.00 | –
4 | Cc1ccc(-c2cc(C(F)(F)F)nn2-c2ccc(S(N)(=O)=O)cc2)cc1 [CELECOXIB] | – | 83.4
5 | NS(=O)(=O)c1ccc(N2C(=O)c3nccnc3C2=O)cc1 | < 4.00 | 160
6 | CC(C)(C)c1ccc2c(c1)C(=O)N(Cc1ccc(S(N)(=O)=O)cc1)C2=O | < 4.00 | –
7 | O=C(O)c1ccc(N2C(=O)c3cc(Cl)c(Cl)cc3C2=O)cc1 | < 4.00 | –
8 | Cc1ccc2c(c1)C(=O)N(c1ccc(S(N)(=O)=O)cc1)C2=O | < 4.00 | –
9 | O=C(O)c1ccc(N2C(=O)c3cccc4cccc(c34)C2=O)cc1 | < 4.00 | –
10 | O=C(O)c1ccc(N2C(=O)c3nccnc3C2=O)cc1 | < 4.00 | –
11 | NS(=O)(=O)c1ccc(N2C(=O)c3cccc4cccc(c34)C2=O)cc1 | < 4.00 | 210
12 | NS(=O)(=O)c1ccc(CN2C(=O)c3ccc([N+](=O)[O-])cc3C2=O)cc1 | < 4.00 | 72.4
13 | NS(=O)(=O)c1ccc(CN2C(=O)c3cc(Cl)c(Cl)cc3C2=O)cc1 | < 4.00 | 100
14 | O=C(O)c1ccc(N2C(=O)c3ccccc3C2=O)cc1 | < 4.00 | –
15 | NS(=O)(=O)c1ccc(N2C(=O)c3cc(Cl)c(Cl)cc3C2=O)cc1 | < 4.00 | 111
16 | NS(=O)(=O)c1ccc(CN2C(=O)[C@H]3CC=CC[C@H]3C2=O)cc1 | < 4.00 | –
17 | O=C(O)c1ccc(N2C(=O)c3ccc([N+](=O)[O-])cc3C2=O)cc1 | < 4.00 | –
18 | NS(=O)(=O)c1ccc(N2C(=O)c3ccc([N+](=O)[O-])cc3C2=O)cc1 | < 4.00 | 101

Further lines, with some results ahead:

Row | pIC50 [1] | Structure (SMILES) | ED50 (Rattus norvegicus) [mg/kg]
19 | < 4.00 | NS(=O)(=O)c1ccc(N2C(=O)c3ccccc3C2=O)cc1 | –
20 | < 4.00 | NS(=O)(=O)c1ccc(N2C(=O)[C@H]3CC=CC[C@H]3C2=O)cc1 | –
21 | < 4.00 | NS(=O)(=O)c1ccc(CN2C(=O)CCC2=O)cc1 | –
22 | < 4.00 | CC(C)(C)c1ccc2c(c1)C(=O)N(c1ccc(S(N)(=O)=O)cc1)C2=O | –
23 | < 4.00 | NS(=O)(=O)c1ccc(CN2C(=O)c3c(Cl)c(Cl)c(Cl)c(Cl)c3C2=O)cc1 | –
24 | < 4.00 | NS(=O)(=O)c1ccc(N2C(=O)CCC2=O)cc1 | –
25 | < 4.00 | O=C(O)c1ccc(N2C(=O)CCC2=O)cc1 | –
26 | < 4.00 | Cc1ccc2c(c1)C(=O)N(Cc1ccc(S(N)(=O)=O)cc1)C2=O | –
27 | < 4.00 | NS(=O)(=O)c1ccc(CN2C(=O)c3ccccc3C2=O)cc1 | –
28 | < 4.00 | NS(=O)(=O)c1ccc(CN2C(=O)c3cccc4cccc(c34)C2=O)cc1 | 200
29 | < 4.00 | Cc1ccc2c(c1)C(=O)N(c1ccc(C(=O)O)cc1)C2=O | –
30 | < 4.00 | O=C(O)c1ccc(N2C(=O)[C@H]3CC=CC[C@H]3C2=O)cc1 | –
31 | < 4.00 | NS(=O)(=O)c1ccc(CN2C(=O)c3nccnc3C2=O)cc1 | 126
